Measurements published in patent US20240009161A1, “[…] MATERIAL WITH LOW pH AND LOW TOXICITY ACTIVE AGAINST AT LEAST ONE PATHOGEN FOR ADDRESSING PATIENTS WITH RESPIRATORY […]” (priority 2020, published 2024).
Where “and” joins values, the source holds several entries; their conditions need not be identical. Equal entries are not always repeated. Where two headings read alike, the source gives them in different places.

What was measured:
[1] = system: SARS-CoV-2 virus; details: hard surfaces, 1 minute, 4% concentration, 2.68 pH; cited from earlier work
[2] = system: Klebsiella pneumoniae ATCC 4532; test: ASTM E2315 suspension test, 1 minute; type: cell-based; details: 1.99 pH
[3] = system: Human Coronavirus, 229E strain, ATCC VR-740; test: ASTM E1052 virus suspension test, 1 minute; type: cell-based
Protocol: A 1-minute suspension test is considered to be the most representative in vitro test to simulate in vivo efficacy based on previously discussed pharmacokinetics. A 1 log or 90% efficacy target has been chosen with consideration of patient recovery, while minimizing the effective concentration and potential patient risk. In one contemplated method of administration as described in the present disclosure, the material is administered to the patient in need thereof by inhalation by nebulizer. It is contemplated that patients using an inhalation method such as nebulizer administration would be inhaling the therapeutic material comprising a pharmaceutically acceptable fluid as disclosed herein continuously for several minutes in a specific concentration either continuously or in a series of discrete dose intervals with potentially multiple times per day potentially over multiple days. As a result, any reduction in pathogen load in vitro may be compounded in vivo to achieve higher efficacy over the treatment period.
(§1) In order to assess the antimicrobial efficacy of various acid compounds and combinations, a variety of potential pharmaceutically acceptable fluid formulations within the scope of the present disclosure were evaluated to determine antimicrobial efficacy against common viral, bacterial, and fungal pathogens. These studies were all performed by an ISO 17025 Accredited and GLP Compliant Laboratory. These in vitro tests followed ASTM (American Society of Testing and Materials) standard suspension tests for antimicrobial efficacy. The tests were all performed with a 1-minute contact time based on the pharmacokinetics previously described.
Purpose: COVID-19 is a global pandemic caused by the SARS-CoV-2 coronavirus. The purpose of these studies was to determine the efficacy of several inorganic acids against the human coronavirus and ascertain the pH required to achieve 1 log efficacy in 1 minute.
SARS-CoV-2 is a beta coronavirus. An alpha coronavirus was used in these studies since this was the closest virus available at the test laboratory. The alpha coronavirus is considered to be representative for efficacy on SARS-CoV-2 for purposes of this investigation.
Due to the larger increase in pH, none of the acids achieved the 1 log efficacy goal.
The EMEM includes live MRC-5 cells which have significant buffer capacity.

[4] = system: L929 mouse cell line; details: for Cytotoxicity Grade: mouse
[5] = system: Haemophilus influenza ATCC 8149; test: ASTM E2315 suspension test, 1 minute; type: cell-based; details: 1.99 pH
Protocol: as §1
Three other bacteria and three fungi were selected that represent a wide variety of respiratory pathogens.

[6] = system: Pseudomonas aeruginosa ATCC BAA-2801; test: ASTM E2315 suspension test, 1 minute; type: cell-based
Protocol: as §1
(§2) Purpose: The first set of in vitro efficacy tests were performed on antibiotic resistant Staphylococcus aureus and Pseudomonas aeruginosa bacteria. These two antibiotic resistant bacterial strains were initially selected since these pathogens represent two broad classes of bacteria. S. aureus is gram-positive and P. aeruginosa is gram-negative. Antibiotic resistant strains of each pathogen are considered some of the deadliest respiratory bacterial strains with limited therapeutic options.
(§3) The as-received pH measurements were of the test materials as received by the test laboratory. The ASTM antimicrobial test procedures mix 9 parts test material with 1 part medium containing the pathogen. The as-applied pH is the pH after mixing, which is what is seen by the pathogen. After the test duration, 1 minute for these tests, the test material is neutralized, and the pathogens are counted and compared with the control.

[7] = system: Rhizopus microspores ATCC 52807; test: ASTM E2315 suspension test, 1 minute; type: cell-based; details: 1.9 pH
[8] = system: Streptococcus pneumoniae ATCC 6303; test: ASTM E2315 suspension test, 1 minute; type: cell-based
Protocol: as §1
Purpose: Streptococcus pneumoniae is a leading cause of bacterial pneumonia, meningitis, and sepsis, and is estimated to have caused approximately 335,000 (240,000-460,000) deaths in children aged <5 years in 2015 globally. Due to the prevalence and mortality of S. pneumoniae a wide range of acid formulations were tested against this common pathogen to determine what variables may affect efficacy. The purpose of the tests performed was to determine what pH is required to achieve 1 log (90%) efficacy in 1 minute against S. pneumoniae using various acid formulations.

[9] = system: Influenza A (H1N1) A/PR/8/34 Strain; type: cell-based, Influenza A virus
[10] = system: Mycobacterium terrae ATCC 15755; type: cell-based
[11] = system: Aspergillus fumigatus ATCC 36607; test: ASTM E2315 suspension test, 1 minute; type: cell-based; details: 1.9 pH
[12] = system: Rhinovirus 37; test: ASTM E1052 virus suspension test, 1 minute; type: cell-based; details: 1.66 and 1.90 pH
[13] = system: Staphylococcus aureus ATCC (MRSA) 33591; test: ASTM E2315 suspension test, 1 minute; type: cell-based; details: pH 3.1, one minute
Protocol: as §1, §2, §3

CC(=O)O [acetic acid, Acetic acid]
Log efficacy [1]: 4 log

O=S(=O)(O)O [sulfuric acid, Sulfuric acid]
Effectiveness [2]: highly effective
Efficacy % [3]: 82.11%
Efficacy at inactivating human coronavirus [3]: provides efficacy at inactivating and/or reducing concentration of human coronavirus
Efficacy log [3]: 0.75 log
In vitro efficacy on human coronavirus [3]: demonstrated in vitro efficacy on human coronavirus
In vitro suspension efficacy, % [3]: 82.11%
In vitro suspension efficacy, log [3]: 0.75 log
Test Results [4]: No biological reactivity
Cytotoxicity Grade ([4]; 0.12 %): Grade 0
Cytotoxicity Grade ([4]; 0.18 %): Grade 0
Cytotoxicity Grade ([4]; 0.3 %): Grade 0
Cytotoxicity Grade ([4]; […]): Grade 0
Effectiveness [5]: highly effective
Effectiveness ([6]; 1.9 pH, antibiotic resistant strain): effective
Effectiveness [7]: effective
Effective pH to meet the 1 log efficacy target [8]: 1.91 pH
Effectiveness ([8]; 1.9 pH): effective
Log efficacy [9]: > 4 log
Efficacy % [10]: 25% and 24.56%
Efficacy log [10]: 0.12 log
Effectiveness [11]: effective
Log efficacy [12]: > 2 log

Albuterol sulfate [reference compound]
Efficacy as 1 log decrease in pathogen count [13]: no efficacy
Effectiveness vs 1 log target ([6]; 3.1 pH): no efficacy

Cl [hydrochloric acid, Hydrochloric acid]
Effective pH to meet the 1 log efficacy target [8]: approximately 1.87 pH
Efficacy ([8]; 1.98 pH): no little efficacy

Polyphosphoric acid
Effective pH to meet the 1 log efficacy target [8]: approximately 1.85 pH

Br [hydrobromic acid, Hydrobromic acid]
Effective pH to meet the 1 log efficacy target [8]: 1.90 pH
